Measurements reported in the NIST ThermoML archive (doi:10.1021/acs.jced.7b00429).

Test: xn = mol fraction of the nth substance listed
Settings: 100 kPa, Liquid; for viscosity: Falling or rolling sphere viscometry; for speed of sound: Frequency=3 MHz, Single path-length method; for mass density: Vibrating tube method

C[S+](C)[O-] [dimethyl sulfoxide] + CC#N
Settings	mass density, 313.15 K [kg/m3]	mass density, 318.15 K [kg/m3]	mass density, 323.15 K [kg/m3]	speed of sound, 313.15 K [m/s]	speed of sound, 318.15 K [m/s]	speed of sound, 323.15 K [m/s]	viscosity, 313.15 K [mPa·s]	viscosity, 318.15 K [mPa·s]	viscosity, 323.15 K [mPa·s]
x1 = 0.0995	804.26	798.81	793.34	1241.2	1221.8	1202.4	0.37	0.35	0.34
x1 = 0.2061	846.95	841.59	836.19	1266.1	1247.4	1228.6	0.44	0.42	0.4
x1 = 0.2936	880.52	875.23	869.91	1291	1272.7	1254.3	0.49	0.47	0.45
x1 = 0.4055	919.62	914.41	909.18	1318.8	1300.5	1282.7	0.6	0.57	0.54
x1 = 0.5051	951.43	946.27	941.1	1342.5	1325	1307.6	0.71	0.67	0.63
x1 = 0.6001	979.59	974.52	969.42	1364.1	1346.9	1329.7	0.85	0.79	0.75
x1 = 0.7006	1007.58	1002.73	997.71	1388	1371.2	1354.2	1	0.94	0.87
x1 = 0.8072	1035.36	1030.38	1025.37	1410.3	1393.5	1376.8	1.19	1.1	1.03
x1 = 0.8947	1057.03	1052.04	1047.05	1431	1413.8	1397.2	1.35	1.24	1.15
x1 = 1	1080.6	1075.6	1070.66	1440	1423.3	1406.7	1.53	1.41	1.3
